US9550742B2, “11-OXO-10,11-dihydrodibenzo[B,F][1,4]thiazepine S-oxide derivatives and their use as dopamine D2 receptor antagonists” (The United States of America, as Represented by the …, priority 2013, dated 2017)

What was measured:
D2 DAR = target: T1, D2 DAR (Homo sapiens, UniProt P14416); assay: D2 Ca^2+ screen assay (calcium accumulation, HEK293 T-REx with Gqi5); type: cell-based; conditions: dopamine D2 calcium release assay of Example 1; read-out: Ca^2+ AC50
T1 construct: expressed in transfected cells; host or cells: HEK293 T-REx, Tet-inducible, with chimeric G-protein Gqi5
T1 sequence (P14416 whole entry): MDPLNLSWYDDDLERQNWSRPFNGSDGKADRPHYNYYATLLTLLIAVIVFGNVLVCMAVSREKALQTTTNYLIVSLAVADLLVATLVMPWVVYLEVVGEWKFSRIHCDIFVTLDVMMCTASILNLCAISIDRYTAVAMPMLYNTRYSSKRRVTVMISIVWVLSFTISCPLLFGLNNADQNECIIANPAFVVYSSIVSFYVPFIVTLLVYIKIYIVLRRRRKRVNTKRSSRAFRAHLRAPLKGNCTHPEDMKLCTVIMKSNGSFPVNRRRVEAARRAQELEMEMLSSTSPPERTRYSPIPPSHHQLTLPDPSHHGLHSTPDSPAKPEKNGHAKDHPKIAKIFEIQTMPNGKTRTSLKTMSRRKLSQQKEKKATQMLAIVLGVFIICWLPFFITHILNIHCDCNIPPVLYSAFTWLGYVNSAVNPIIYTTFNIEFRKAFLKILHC
Experimental: The resting concentration of calcium ions (Ca^2+) in the cells' cytoplasm is normally maintained in the range of 10-100 nM. To maintain this low concentration, Ca^2+ is actively pumped from the cytosol to the extracellular space and into the endoplasmic reticulum (ER), and sometimes into the mitochondria. Signaling occurs when the cell is stimulated to release Ca^2+ from intracellular stores. The most common signaling pathway that increases cytoplasmic calcium concentration is the phospholipase C (PLC) pathway. […] IP3 diffuses to the ER, binds to its receptor (IP3 receptor), which is a Ca^2+ channel and, thus, releases Ca^2+ from the ER to the cytosol. To measure this cytosolic Ca^2+ accumulation, we used the Screen Quest™ Fluo-8 Calcium Assay Kit (AAT Bioquest, Sunnyvale, Calif.). Acetoxymethyl (AM) esters bound to Fluo-8™ dye are non-polar molecules that easily cross live cell membranes transporting the dye inside the cell, and are then rapidly hydrolyzed by cellular esterases inside live cells. As Fluo-8™ is freed from AM esters, it binds to Ca^2+ and emits a fluorescent signal at 514 nm that escalates with increasing cytosolic Ca^2±. To measure this calcium flux signal, we used the Functional Drug Screening System (FDSS) (Hamamatsu, Japan), a high throughput screening device that allows optical detection of signal transmissions within living cells in a time-resolving fashion. […] Quest Fluo-8™ calcium reagent was freshly prepared prior to adding to the cells (lyophilized Fluo-8™ dye provided with the kit was re-suspended in 200 μL DMSO as a 500× stock and stored at −20° C.). 2 μL/well of Quest Fluo-8™ calcium dye diluted in HBSS +10 mM HEPES buffer (for every 10 mL buffer, 1 mL of 10× quencher provided in the kit and 20 μL of 500×DMSO stock dye were added) was added to cells with a Multi-Drop Combi (ThermoScientific) and incubated for 45-90 min in the dark at ambient temperature. Then, the plates were introduced into the FDSS where they were pinned with 23 nL of test compound or dopamine controls and were read by FDSS in non-stimulated mode for 180 sec for detection of agonists. […]

D2 GPCR receptor (DAR) = target: T2, D2 GPCR receptor (DAR) (Homo sapiens, UniProt P14416); assay: D2 beta-arrestin functional assay (PathHunter, CHO); type: cell-based; conditions: ratio of D3 (Example 4) to D2 (Example 2) beta arrestin assay
T2 construct: host or cells: CHO PathHunter β-arrestin cells
T2 sequence (P14416 whole entry): as above
Excerpt: For a secondary-screen and selectivity assays, DAR PathHunter® β-arrestin GPCR cell lines from DiscoveRx (Fremont, Calif.). In this) were used. In the D2 Receptor PathHunter® β-arrestin GPCR cell line, the D2 GPCR receptor (DAR) is overexpressed and fused with a small 42-amino acid fragment of β-galactosidase called ProLink™ on a CHO cellular background expressing a fusion protein of β-arrestin and a larger N-terminal deletion mutant of β-galactosidase (“enzyme acceptor”). When DAR is activated by dopamine, it stimulates binding of β-arrestin to the ProLink-tagged DAR and the two complementary parts of β-galactosidase form a functional enzyme. When substrate (PathHunter® Detection reagent) is added, β-galactosidase hydrolyzes it and generates a chemiluminescent signal.
D2 Receptor PathHunter® β-arrestin cells were seeded at 2,100 cells/well in 3 μL/well media (DiscoveRx Plating Reagent 2) with MultiDrop Combi dispenser (Thermo Scientific, Logan, Utah) onto white tissue culture treated 1,536-well Aurora plates (Brooks Automation, Chelmsford, Mass.) and allowed to attach overnight at 37° C., 5% CO2. Next, 23 nL/well of compound solutions in DMSO were added with a pintool transfer (Kalypsis, San Diego, Calif.). The cells were stimulated by compounds for 90 min at 37° C., 5% CO2, after which 1.5 μL/well of DiscoveRx detection reagent was added with BioRAPTR FRD dispenser. The detection reagent was prepared by mixing of Galacton Star Substrate, Emerald II solution and PathHunter buffer (supplied by the assay kit) together at a 1:5:19 proportion just prior to dispensing. The plates were incubated at ambient temperature for 1 hr, and the luminescent signal was read on a ViewLux plate reader (PerkinElmer, Waltham, Mass.).

[1] = target: D2L human dopamine receptors (Homo sapiens, UniProt P14416); assay: D2 binding assay ([^3H]methylspiperone, HEK membranes); conditions: ratio of D3 (Example 5) to D2 (Example 3) binding assay
Chain of D2L human dopamine receptors (P14416 whole entry): as above
Experimental: Compounds were tested for differences in affinity between three dopamine receptor subtypes using radio-labeled ligand binding assays. The first assay determined the Ki value of the compounds for the D2 DAR subtype using stable HEK cell lines expressing the D2L human dopamine receptors (Codex Biosciences, Gaithersburg, Md.). Cells were cultured in Dulbecco's modified Eagle's Medium containing 10% FBS, 1,000 units/mL Penicillin, 1,000 mg/mL Streptomycin, 100 mM Sodium Pyruvate, 1 μg/mL Gentamicin, and […] G418. All cells were maintained at 37° C. in 5% CO2 and 90% humidity. For radioligand binding assays, cells were removed mechanically using calcium and magnesium-free Earle's Balanced Salt Solution (EBSS(−)). Intact cells were collected by centrifugation and then lysed with 5 mM Tris-HCl and 5 mM MgCl2 at pH 7.4 in a glass homogenizer. Homogenates were centrifuged at 20,000×g for 30 minutes. The membranes were re-suspended in EBSS (pH 7.4) and protein concentration was determined using a Bradford assay according to the manufacturer's recommendations (Bio-Rad). Membranes were diluted to 24 mg/mL. […] Membrane preparations were incubated for 90 min at room temperature with various concentrations of radioligand in a reaction volume of 250 μL EBSS containing 200 mM sodium metabisulfite. Non-specific binding was determined in the presence of 4 μM (+)-butaclamol. Bound ligand was separated from unbound by filtration through GF/C filters using a PerkinElmer cell harvester with ice cold EBSS (4 washes) and quantified on a Top-count (PerkinElmer) after addition of scintillation solution. […] In order to determine the affinity of a given compound for a receptor type, competition-binding assays were performed. […] Reactions were incubated, terminated, and quantified as indicated above.

Compound	AC50 (D2 DAR) [nM]	D3/D2 beta-arrestin IC50ratio (D2 GPCR receptor (DAR))	D3/D2 binding Ki ratio [1]
CN1C(=O)c2ccccc2[S+]([O-])c2ccc(C(=O)NCCc3cccs3)cc21 (racemic) [Compound 32, 10-Methyl-11-oxo-N-(2-(thiophen-2-yl)ethyl)-10,11-dihydrodibenzo[b,f][1,4]thiazepine-8-carboxamide 5-oxide]	< 1000	22.3	28.7
COc1ccc(CNC(=O)c2ccc3c(c2)N(C)C(=O)c2ccccc2[S+]3[O-])cc1 (stereo not shown) [Compound 20, N-(4-Methoxybenzyl)-10-methyl-11-oxo-10,11-dihydrodibenzo[b,f][1,4]thiazepine-8-carboxamide 5-oxide]	< 1000	–	–
CCCN1C(=O)c2ccccc2[S+]([O-])c2ccc(C(=O)NCc3ccc(OC)cc3)cc21 (stereo not shown) [Compound 21, N-(4-Methoxybenzyl)-11-oxo-10-propyl-10,11-dihydrodibenzo[b,f][1,4]thiazepine-8-carboxamide 5-oxide]	< 1000	–	–
COc1ccc(NC(=O)c2ccc3c(c2)N(C)C(=O)c2ccccc2[S+]3[O-])cc1 (stereo not shown) [Compound 24, N-(4-Methoxyphenyl)-10-methyl-11-oxo-10,11-dihydrodibenzo[b,f][1,4]thiazepine-8-carboxamide 5-oxide]	< 1000	–	–
CN1C(=O)c2ccccc2[S+]([O-])c2ccc(C(=O)NCc3ccccc3)cc21 (stereo not shown) [Compound 25, N-Benzyl-10-methyl-11-oxo-10,11-dihydrodibenzo[b,f][1,4]thiazepine-8-carboxamide 5-oxide]	< 1000	–	–
CN1C(=O)c2ccccc2[S+]([O-])c2ccc(C(=O)NCc3ccc(F)cc3)cc21 (stereo not shown) [Compound 26, N-(4-Fluorobenzyl)-10-methyl-11-oxo-10,11-dihydrodibenzo[b,f][1,4]thiazepine-8-carboxamide 5-oxide]	< 1000	–	–
CN1C(=O)c2ccccc2[S+]([O-])c2ccc(C(=O)NCc3ccc(Cl)cc3)cc21 (stereo not shown) [Compound 27, N-(4-Chlorobenzyl)-10-methyl-11-oxo-10,11-dihydrodibenzo[b,f][1,4]thiazepine-8-carboxamide 5-oxide]	< 1000	–	–
CN1C(=O)c2ccccc2[S+]([O-])c2ccc(C(=O)NCc3cccc(Cl)c3)cc21 (stereo not shown) [Compound 28, N-(3-Chlorobenzyl)-10-methyl-11-oxo-10,11-dihydrodibenzo[b,f][1,4]thiazepine-8-carboxamide 5-oxide]	< 1000	–	–
CN1C(=O)c2ccccc2[S+]([O-])c2ccc(C(=O)NCc3ccc(Br)cc3)cc21 (stereo not shown) [Compound 29, N-(4-Bromobenzyl)-10-methyl-11-oxo-10,11-dihydrodibenzo[b,f][1,4]thiazepine-8-carboxamide 5-oxide]	< 1000	–	–
CN1C(=O)c2ccccc2[S+]([O-])c2ccc(C(=O)NCc3cccnc3)cc21 (stereo not shown) [Compound 31, 10-Methyl-11-oxo-N-(pyridin-3-ylmethyl)-10,11-dihydrodibenzo[b,f][1,4]thiazepine-8-carboxamide 5-oxide]	< 1000	–	–
CN1C(=O)c2ccccc2[S+]([O-])c2ccc(C(=O)NCCN3CCCC3)cc21 (stereo not shown) [Compound 33, 10-Methyl-11-oxo-N-(2-(pyrrolidin-1-yl)ethyl)-10,11-dihydrodibenzo[b,f][1,4]thiazepine-8-carboxamide 5-oxide]	< 1000	–	–
CN1C(=O)c2ccccc2[S+]([O-])c2ccc(C(=O)NCCN3CCCCC3)cc21 (stereo not shown) [Compound 34, 10-Methyl-11-oxo-N-(2-(piperidin-1-yl)ethyl)-10,11-dihydrodibenzo[b,f][1,4]thiazepine-8-carboxamide 5-oxide]	< 1000	–	–
CN(C)CCCNC(=O)c1ccc2c(c1)N(C)C(=O)c1ccccc1[S+]2[O-] (stereo not shown) [Compound 35, N-(3-(Dimethylamino)propyl)-10-methyl-11-oxo-10,11-dihydrodibenzo[b,f][1,4]thiazepine-8-carb oxamide 5-oxide]	< 1000	–	–
CCN1C(=O)c2ccccc2Sc2ccc(C(=O)NCc3ccc(OC)cc3)cc21 [Compound 36, 10-Ethyl-N-(4-methoxybenzyl)-11-oxo-10,11-dihydrodibenzo[b,f][1,4]thiazepine-8-carboxamide]	< 1000	–	–
CCN1C(=O)c2ccccc2[S@+]([O-])c2ccc(C(=O)NCc3ccc(OC)cc3)cc21 [Compound 38, 10-Ethyl-N-(4-methoxybenzyl)-11-oxo-10,11-dihydrodibenzo[b,f][1,4]thiazepine-8-carboxamide 5-(S)-oxide]	< 1000	2.5	–
CCN1C(=O)c2ccccc2[S+]([O-])c2ccc(NC(=O)Cc3ccc(OC)cc3)cc21 (stereo not shown) [Compound 45, N-(10-Ethyl-11-oxo-10,11-dihydrodibenzo[b,f][1,4]thiazepin-8-yl)-2-(4-methoxyphenyl)acetamide 5-oxide]	< 1000	–	–
CCN1C(=O)c2ccccc2[S+]([O-])c2ccc(NC(=O)Cc3ccc(F)cc3)cc21 (stereo not shown) [Compound 46, N-(10-Ethyl-11-oxo-10,11-dihydrodibenzo[b,f][1,4]thiazepin-8-yl)-2-(4-fluorophenyl)acetamide 5-oxide]	< 1000	–	–
CCN1C(=O)c2ccccc2[S@+]([O-])c2ccc(C(=O)NCc3ccc(F)cc3)cc21 [Compound 47, 10-Ethyl-N-(4-fluorobenzyl)-11-oxo-10,11-dihydrodibenzo[b,f][1,4]thiazepine-8-carboxamide 5-(S)-oxide]	< 1000	5.6	2.6
CCN1C(=O)c2ccccc2[S@+]([O-])c2ccc(C(=O)NCc3ccc(C#N)cc3)cc21 [Compound 48, N-(4-Cyanobenzyl)-10-ethyl-11-oxo-10,11-dihydrodibenzo[b,f][1,4]thiazepine-8-carboxamide 5-(S)-oxide]	< 1000	6.3	5.7
CN1C(=O)c2ccccc2[S@+]([O-])c2ccc(C(=O)NCc3ccc(Cl)cc3)cc21 [Compound 51, N-(4-Chlorobenzyl)-10-methyl-11-oxo-10,11-dihydrodibenzo[b,f][1,4]thiazepine-8-carboxamide 5-(S)-oxide]	< 1000	4.5	–
